Data: US8609413B2, “Neurons, astrocytes and oligodendrocytes differentiated from a mammalian pluripotent or neural stem cells exposed to a pyridine deriviative” (Research Development Foundation, priority 2007, dated 2013)
“Also recorded” adds a separate entry of the source.

Legend:
[1] = system: CGR8 mouse ES cells; assay: Secondary screening assay: neuronal differentiation of mouse ES cells, total neurite outgrowth; type: cell-based; settings: 5 days with compound in SR medium, then 4 days N2 medium without compound; vs control cells
Protocol: To perform the secondary screening assay, neuronal differentiation of CGR8 cells was carried out in SR medium (DMEM high glucose supplemented with 15% KO serum (Gibco), non-essential amino acids, penicillin and streptomycin). Cells were plated at 10^5 cells per 10 cm cell culture dish and maintained is SR medium for 5 days with compounds found in the primary screen. Cells were subsequently dissociated and replated at 4×10^4 cells/cm^2 in N2 medium (DMEM high glucose, N2 supplement, 10 ng/ml basic fibroblast growth factor, penicillin and streptomycin) and cultured for four additional days without compound addition. Immunostaining quantification. Immunostaining and nuclear staining quantifications were performed using the MetaXpress software (Molecular devices). Total neurite outgrowth was quantified using the neurite outgrowth analysis module, and total cell numbers were quantified with the count nuclei analysis module. For further studies, 32 compounds were selected with high Fluc/Rluc ratio. A dose-response analysis of Fluc/Rluc ratio was performed in the same conditions as used for the primary screen, using concentrations ranging from 100 nM to 100 μM. […] The amounts of neurons were quantified by calculating total neurite outgrowth identified by β3-tubulin immunoreactivity using an automated imaging system (see Methods above).

[2] = system: H1 ES cells; assay: Real Time PCR of neural and non-neural markers during differentiation protocol 2; type: cell-based, human; settings: 3 μM
Protocol: Real Time PCR. Reactions were run on an ABI Prism 7900 HT detection system (Applied Biosystems). ALAS and GusB were used as housekeeping genes. […] Sequences of the primers are shown in supplementary table.
The kinetics of emergence of neural and non-neural markers in DMSO and 3 μM phenazopyridine-treated H1 ES cells were evaluated using real time PCR. […] Expression of non-neural markers was next evaluated. […] The inventors reasoned that the persistence of these markers could be temporary and therefore investigated their expression after four weeks of differentiation.

[3] = system: human ES cell-derived neural precursors; assay: Two step differentiation: precursors replated without compound in neuronal differentiation medium; type: cell-based
Text: To investigate the potential of neural precursors generated through phenazopyridine treatment, cells exposed to DMSO or phenazopyridine for four weeks as in Example 2 were replated at low density (5×10^3 cells/cm^2) on polyornithine/laminin coated support in neuronal differentiation medium, and investigated for their phenotype at different time points. Cells were then immunostained for neuronal markers and alkaline phosphatase (marking undifferentiated ES cells) after one week and four weeks of differentiation. Immunostaining was performed for nestin, β3-tubulin, Sox1, Pax6, vimentin, GFAP, CNPase, v-Glut1, GAD67, tyrosine hydroxylase and alkaline phosphatase. […] Two different protocols were used to induce neuronal differentiation of human ES cells. In the first protocol, human ES cells were mechanically dissociated into small aggregates and plated on laminin/polyornithine coated six-well plates. Cells were cultured 2 weeks in human SR medium (DMEM F-12 supplemented with 15% knockout serum (Gibco), non-essential amino acids, penicillin and streptomycin), followed by 4 weeks in N2 medium. Compounds were added throughout these first 6 weeks. Subsequently, cells were mechanically dissociated and replated on polyornithine/laminin-coated 6 well plates. Throughout the text, this first differentiation protocol will be referred to as “differentiation protocol 1”. The second differentiation protocol was derived from previously described differentiation conditions (Nat et al., 2007). In the second differentiation protocol, undifferentiated human ES cells were mechanically dissociated into small aggregates and cultured in suspension on low-attachment six-well plates. For the first 4 days, they were cultured in neuronal induction medium (DMEM F-12, N2 supplement, penicillin and streptomycin), which was changed to simple neuronal proliferation medium (DMEM F-12, N2 supplement, 20 ng/ml bFGF, penicillin and streptomycin) for 2 additional days. Subsequently, aggregates were plated on polyornithine/laminin-coated six-well plates and maintained in simple neuronal proliferation medium for 7 days. Cells were then mechanically dissociated and replated in N2 medium at a density of 2×10^4 cells per cm^2 for two additional weeks. Compounds were added throughout these first 4 weeks. Cells were then replated at a density of 5′000 cells per cm^2 in neuronal differentiation medium (Neurobasal medium, B-27 supplement, BDNF (10 ng/ml), penicillin and streptomycin). Throughout the text, this second differentiation protocol will be referred as to “differentiation protocol 2”. […] To investigate the potential of neuronal precursors generated through phenazopyridine treatment, the inventors devised a two step differentiation protocol. Cells were first treated with 3 μM phenazopyridine for 4 weeks and subsequently replated in the absence of phenazopyridine. For the second step, the inventors cultured cells at low density (5×10^3 cells/cm^2) on polyornithine/laminin-coated support in neuronal differentiation medium and investigated their phenotype at different time points in three independent experiments.

Nc1ccc(/N=N/c2ccccc2)c(N)n1 [phenazopyridine]
total neurite outgrowth identified by β3-tubulin immunoreactivity [1]: increase of total neurite outgrowth as compared to control cells | expression of Oct-4 and brachyury ([2]; 2 weeks): increased | expression of forebrain (Mash1) and ventral hindbrain (Nkx2.2, HoxB4, Olig2) markers ([2]; 2 weeks): also upregulated | expression of α-fetoprotein (AFP) ([2]; 2 weeks): did not vary between both conditions | expression of early (Pax6, nestin), intermediate (β3-tubulin, vimentin) and late (β3-tubulin, Map2) neuronal differentiation markers ([2]; 2 weeks of differentiation, vs control): upregulation | expression of the same neural markers at 4 weeks ([2]; 4 weeks of differentiation): significant differences in the expression of the same markers at 4 weeks of differentiation were not observed | downregulation of Oct4 ([2]; four weeks of differentiation): > 1000 fold | downregulation of brachyury ([2]; four weeks of differentiation): > 10 fold | downregulation of α-fetoprotein ([2]; four weeks of differentiation): > 1000 fold | phenotype 4 weeks after replating ([3]; 3 μM for 4 weeks, then 4 weeks without compound): formed networks of neurons, astrocytes and oligodendrocytes; also recorded: slow-growing cell clusters homogeneously positive for nestin, β3-tubulin, Sox1 and vimentin, together with more mature neurons, astrocytes and oligodendrocyte progenitors | subtypes of neurons ([3]; 3 μM for 4 weeks, then one week without compound): mainly glutamatergic, GABAergic and rarely dopaminergic neurons; also recorded: glutamatergic, GABAergic and—more rarely—TH-positive neurons | phenotype one week after replating ([3]; 3 μM for 4 weeks, then replated without compound): started to differentiate into neurons; also recorded: relatively homogenous monolayer of neural precursors and early neurons with short neurites | alkaline phosphatase-positive (undifferentiated ES) cells ([3]; after replating, vs control): never detected alkaline phosphatase-positive cells | astrocytes or oligodendrocyte precursors (GFAP, CNPase immunostaining) ([3]; one week after replating): did not observe the presence of astrocytes or oligodendrocytes precursors
